Assay: Relative thermodynamic stability of crystalline anhydrous Forms I and II (competitive slurry experiments)
Type: physicochemical
Procedure: Competitive slurry experiments were conducted to determine the relative stability of anhydrous Form I and II.

Row | kinetic preference of form (at room temperature) | conversion rate from AHI to AHII (in solution, under general processing conditions) | thermodynamic stability (at room temperature) | Structure (SMILES)
1 | kinetically favored | very slow |  | Cn1c(Cn2ccc(C(F)(F)F)c(Oc3cc(Cl)cc(C#N)c3)c2=O)n[nH]c1=O [anhydrous Form I, 3-chloro-5-({1-[(4-methyl-5-oxo-4,5-dihydro-1H-1,2,4-triazol-3-yl)methyl]-2-oxo-4-(trifluoromethyl)-1,2-dihydropyridin-3-yl}oxy)benzonitrile]
2 |  |  | more thermodynamically stable | Cn1c(Cn2ccc(C(F)(F)F)c(Oc3cc(Cl)cc(C#N)c3)c2=O)n[nH]c1=O [anhydrous Form II, 3-chloro-5-({1-[(4-methyl-5-oxo-4,5-dihydro-1H-1,2,4-triazol-3-yl)methyl]-2-oxo-4-(trifluoromethyl)-1,2-dihydropyridin-3-yl}oxy)benzonitrile]
